Reference: ChEMBL document CHEMBL1131548, “Synthesis and biological evaluation of two analogues of (S)-alpha-methyl-3-carboxyphenylalanine” (Bioorg Med Chem Lett, 1998)
pIC50: −log10 of the molar value. Activity calls are given as the source filed them. The rule behind the calls is not given here.

What was measured:
[1] = target: Metabotropic glutamate receptor 6 (Homo sapiens) (UniProt O15303); experiment: Compound was evaluated for its agonist activity against mGluR6 in Chinese hamster ovary (CHO) cells at a concentration of 300 uM; type: functional, cell-based
Metabotropic glutamate receptor 6 (Homo sapiens), sequence (O15303 whole entry): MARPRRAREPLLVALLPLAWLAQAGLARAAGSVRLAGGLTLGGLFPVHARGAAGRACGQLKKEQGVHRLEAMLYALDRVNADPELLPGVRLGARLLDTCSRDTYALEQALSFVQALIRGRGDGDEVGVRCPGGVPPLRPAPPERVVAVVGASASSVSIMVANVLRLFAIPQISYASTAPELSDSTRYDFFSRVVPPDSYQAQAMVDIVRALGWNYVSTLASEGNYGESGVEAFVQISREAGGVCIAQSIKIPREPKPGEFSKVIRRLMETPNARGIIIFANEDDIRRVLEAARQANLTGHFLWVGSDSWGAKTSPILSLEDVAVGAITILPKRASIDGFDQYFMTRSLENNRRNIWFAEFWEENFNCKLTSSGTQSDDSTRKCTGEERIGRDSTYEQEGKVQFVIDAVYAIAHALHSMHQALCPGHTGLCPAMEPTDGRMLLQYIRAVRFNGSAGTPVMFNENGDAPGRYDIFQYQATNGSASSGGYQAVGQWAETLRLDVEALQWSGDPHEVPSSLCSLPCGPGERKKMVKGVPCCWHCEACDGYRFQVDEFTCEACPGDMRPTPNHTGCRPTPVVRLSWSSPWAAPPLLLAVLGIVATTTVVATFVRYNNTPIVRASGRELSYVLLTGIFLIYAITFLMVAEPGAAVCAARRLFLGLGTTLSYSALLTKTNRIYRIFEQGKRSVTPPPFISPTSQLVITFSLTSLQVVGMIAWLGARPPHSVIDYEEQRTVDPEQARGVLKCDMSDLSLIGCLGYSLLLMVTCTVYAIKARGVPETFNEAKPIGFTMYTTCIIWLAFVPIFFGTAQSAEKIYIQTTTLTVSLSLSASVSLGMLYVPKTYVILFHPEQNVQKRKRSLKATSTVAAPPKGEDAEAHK

Rattus norvegicus = species on record: Rattus norvegicus; experiment: Compound was evaluated for its antagonist activity and inhibition of forskolin-stimulated cAMP formation by L-AP4 (10 uM), in adult rat cortical slices; type: functional
[2] = target: Metabotropic glutamate receptor 6 (Homo sapiens) (UniProt O15303); experiment: Compound was evaluated for its agonist activity against mGluR6 in Chinese hamster ovary (CHO) cells; Inactive; type: functional, cell-based

C[C@](N)(Cc1cccc(P(=O)(O)O)c1)C(=O)O
inhibition [1]: 27%

C[C@](N)(Cc1cccc(C(=O)O)c1)C(=O)O
pIC50 (Rattus norvegicus): 6.00

C[C@@]1(C(=O)O)Cc2cc(C(=O)O)ccc2CN1
inhibition [2]: inactive
